Results taken from patent US8563267B2, “Lycogen extract, composition thereof and method for the treatment using the same” (Asia-Pacific Beiotech Developing, Inc., priority 2010, dated 2013).

How the values were obtained:
[1] = test system: type I procollagen; test: Type I procollagen level in Hs68 human fibroblasts (Western blotting); assay type: cell-based; conditions: Hs68, without UV treatment, 24 hr; lycopene 0.1, 0.5, 10 μM; lycogen extract 1, 5, 10 μM
Experimental: The Hs68 human fibroblasts were treated with 20 J/cm^2 of UVA and then with 10, 25 and 50 μM of lycogen extract for 24 hr. The type I procollagen level was analyzed by using Western blotting analysis.
In addition, under condition without UV treatment, the Hs68 human fibroblasts were treated with 0.1, 0.5 and 10 μM lycopene (extracted from tomato) or 1, 5, 10 μM lycogen extract (extracted from photosynthetic bacteria of the present invention) for 24 hr. The type I procollagen level was analyzed by using Western blotting.

[2] = test tube studies; cited from earlier work
[3] = test system: human lymphocytes; conditions: protection of human lymphocytes from free radical NO2; cited from earlier work

CC(C)=CCC/C(C)=C/C=C/C(C)=C/C=C/C(C)=C/C=C/C=C(C)/C=C/C=C(C)/C=C/C=C(\C)CCC=C(C)C [lycopene]
promotion of collagen proliferation (type I procollagen level) [1]: unable to promote collagen proliferation | efficiency of singlet-oxygen quenching action relative to vitamin E [2]: 100 times | NO2 resistant effect relative to β-carotene [3]: at least two times
